The values that follow are results of earlier work, collected in patent publication US20060127486A1, “Ceramic structures for prevention of drug diversion” (priority 2004, published 2006).

SMILES strings stand for the structures.

Details of one series: reference not given here. The note with it: equianalgesic doses of various opioids, given as an aid to exact dose determination.
For the compound `COc1ccc2c3c1O[C@H]1C(=O)CC[C@@]4(O)[C@@H](C2)N(C)CC[C@]314` [oxycodone], the equianalgesic dose is listed as 13.5 mg.

Take `COc1ccc2c3c1O[C@H]1[C@@H](O)C=C[C@H]4[C@@H](C2)N(C)CC[C@@]341` [codeine]: the equianalgesic dose was 90.0 mg. Take `CN1CC[C@]23CCCC[C@H]2[C@H]1Cc1ccc(O)cc13` [levorphanol]: the equianalgesic dose is reported as 1.8 mg.

For the compound `COc1ccc2c3c1O[C@H]1C(=O)CC[C@H]4[C@@H](C2)N(C)CC[C@]314` [hydrocodone], the equianalgesic dose is reported as 15.0 mg.

Regarding `CCC(=O)C(CC(C)N(C)C)(c1ccccc1)c1ccccc1` (stereo not shown) [methadone], the equianalgesic dose is listed as 9.0 mg.

The same series, now with this note: in vivo.
As to `CN1CC[C@]23c4c5ccc(O)c4O[C@H]2[C@@H](O)C=C[C@H]3[C@H]1C5` [morphine], the equianalgesic dose is given as 27.0 mg. Regarding `CCOC(=O)C1(c2ccccc2)CCN(C)CC1` [meperidine], the equianalgesic dose was 135.0 mg.
